How the values were obtained:
GST-DAPP1 = settings: control; cited from earlier work
[1] = biological target: human TAPP1 C-terminal PH domain, mutant R212L (Arg212 to Leu), GST fusion (Homo sapiens, UniProt Q9HB21, R211L); assay: Protein-lipid overlay; format: binding; settings: FIG. 4B
Procedure: (§1) FIG. 4. Comparison of the phosphoinositide binding properties of the N-terminal and C-terminal PH domains of TAPP1 and TAPP2. The ability of wild type and mutant forms of full length (FL) and isolated N-terminal (NT) and C-terminal (CT) PH domains of TAPP1 and TAPP2 GST-fusion proteins to interact with phosphoinositides were analysed using a protein-lipid overlay. Serial dilutions of the indicated phosphoinositides (100 pmol, 50 pmol, 25 pmol, 12.5 pmol, 6.3 pmol, 3.1 pmol and 1.6 pmol) were spotted onto a nitrocellulose membrane which was then incubated with the indicated purified GST fusion proteins. The membranes were washed and the GST-fusion proteins bound to the membrane by virtue of their interactions with lipid were detected using a GST antibody. A representative experiment of three is shown. The isolated N-terminal PH domain of human TAPP1 comprises residues 1 to 147, the isolated C-terminal PH domain of human TAPP1 comprises residues 95 to 404, the isolated N-terminal PH domain of mouse TAPP2 comprises residues 1 to 131 and the isolated C-terminal PH of mouse TAPP2 comprises residues 174 to 425.
(§2) Protein-Lipid overlay. To assess the phosphoinositide binding properties of each PH domain, a protein-lipid overlay assay was performed using the GST fusion proteins as described previously. Briefly, 1 μl of lipid solution containing 1-100 pmol of phospholipids dissolved in a mixture of choroform:methanol:water (1:2:0.8) was spotted onto Hybond-C extra membrane and allowed to dry at room temperature for 1 h. The membrane was blocked in 3% (by mass) fatty acid-free BSA in TBST (50 mM Tris/HCl pH 7.5, 150 mM NaCl and 0.1% Tween-20 (by vol) for lh. The membrane was then incubated overnight at 4° C. with gentle agitation in the same solution containing 0.2 μg/ml of the indicated GST fusion protein. The membranes were washed 6 times over 30 min in TBST and then incubated for 1 h with 1/1000 dilution of anti-GST monoclonal antibody (Sigma). The membranes were washed as before, then incubated for 1 h with 1/5000 dilution of anti-mouse-HRP conjugate (Pierce). Finally, the membranes were washed 12 times over 1 h in TBST and the GST-fusion protein bound to the membrane by virtue of its interaction with phospholipid was detected by enhanced chemiluminescence.

[2] = biological target: human TAPP1, full length, mutant R28L (Arg28 to Leu), GST fusion (Homo sapiens, UniProt Q9HB21, R28L); assay: Protein-lipid overlay; format: binding; settings: FIG. 4B
human TAPP1, full length, mutant R28L (Arg28 to Leu), GST fusion, sequence (Q9HB21 whole entry R28L, the tested form may be a part): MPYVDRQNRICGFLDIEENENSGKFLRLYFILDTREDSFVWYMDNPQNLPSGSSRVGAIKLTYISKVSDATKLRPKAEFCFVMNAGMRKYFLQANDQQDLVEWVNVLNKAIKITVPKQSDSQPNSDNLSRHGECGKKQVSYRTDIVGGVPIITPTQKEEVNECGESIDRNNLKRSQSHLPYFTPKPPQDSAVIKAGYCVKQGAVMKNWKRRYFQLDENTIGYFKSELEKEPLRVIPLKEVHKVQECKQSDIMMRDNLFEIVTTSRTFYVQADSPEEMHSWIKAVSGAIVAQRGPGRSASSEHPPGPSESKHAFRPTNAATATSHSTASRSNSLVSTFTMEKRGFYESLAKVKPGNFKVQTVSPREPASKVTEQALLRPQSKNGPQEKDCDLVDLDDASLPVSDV
Procedure: as §1, §2

[3] = biological target: human TAPP1 C-terminal PH domain, mutant W281L (Trp281 to Leu), GST fusion (Homo sapiens, UniProt Q9HB21, W280L); assay: Protein-lipid overlay; format: binding; settings: FIG. 4B
human TAPP1 C-terminal PH domain, mutant W281L (Trp281 to Leu), GST fusion, sequence (Q9HB21 95-404 W280L): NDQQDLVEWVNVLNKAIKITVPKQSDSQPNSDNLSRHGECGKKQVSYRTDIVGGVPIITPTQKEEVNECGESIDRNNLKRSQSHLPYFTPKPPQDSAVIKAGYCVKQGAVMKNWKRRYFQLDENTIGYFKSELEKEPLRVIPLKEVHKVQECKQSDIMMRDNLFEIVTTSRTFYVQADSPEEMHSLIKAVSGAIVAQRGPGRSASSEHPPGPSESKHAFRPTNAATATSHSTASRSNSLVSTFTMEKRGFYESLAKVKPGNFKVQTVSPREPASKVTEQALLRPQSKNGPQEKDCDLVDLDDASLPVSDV
Procedure: as §1, §2

[4] = biological target: mouse TAPP2, full length, wild type, GST fusion (Mus musculus, UniProt Q9ERS5); assay: Protein-lipid overlay; format: binding; settings: FIG. 4C and Table 2
mouse TAPP2, full length, wild type, GST fusion, sequence (Q9ERS5 whole entry, the tested form may be a part): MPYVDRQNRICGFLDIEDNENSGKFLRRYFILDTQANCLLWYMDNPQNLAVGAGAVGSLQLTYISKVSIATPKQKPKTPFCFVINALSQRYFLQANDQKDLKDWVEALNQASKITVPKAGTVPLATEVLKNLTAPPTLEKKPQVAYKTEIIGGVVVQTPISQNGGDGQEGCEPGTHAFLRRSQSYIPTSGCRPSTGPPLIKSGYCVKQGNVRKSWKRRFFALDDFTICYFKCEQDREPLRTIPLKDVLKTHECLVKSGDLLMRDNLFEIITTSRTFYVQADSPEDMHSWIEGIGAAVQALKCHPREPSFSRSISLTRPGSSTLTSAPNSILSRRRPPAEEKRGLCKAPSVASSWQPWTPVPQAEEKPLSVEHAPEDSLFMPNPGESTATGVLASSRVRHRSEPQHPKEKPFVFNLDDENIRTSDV
Procedure: as §1, §2

[5] = biological target: human TAPP1, full length, mutant R212L (Arg212 to Leu), GST fusion (Homo sapiens, UniProt Q9HB21, R211L); assay: Protein-lipid overlay; format: binding; settings: FIG. 4B
human TAPP1, full length, mutant R212L (Arg212 to Leu), GST fusion, sequence (Q9HB21 whole entry R211L, the tested form may be a part): as the sequence (Q9HB21 whole entry R28L, the tested form may be a part) above, with L28R, R211L counted along it
Procedure: as §1, §2

[6] = biological target: human TAPP1, full length, wild type, GST fusion (Homo sapiens, UniProt Q9HB21); assay: Protein-lipid overlay; format: binding; settings: FIG. 4A and Table 2
human TAPP1, full length, wild type, GST fusion, sequence (Q9HB21 whole entry, the tested form may be a part): as the sequence (Q9HB21 whole entry R28L, the tested form may be a part) above, with L28R counted along it
Procedure: as §1, §2

human TAPP1 C-terminal PH domain, mutant R212L (Arg212 to Leu), GST fusion, sequence (Q9HB21 95-404 R211L): as the sequence (Q9HB21 95-404 W280L) above, with R117L, L186W counted along it

## CCCCCCCCCCCCCCCC(=O)OC[C@H](COP(=O)(O)O[C@H]1[C@H](O)[C@@H](O)[C@H](OP(=O)(O)O)[C@@H](OP(=O)(O)O)[C@H]1O)OC(=O)CCCCCCCCCCCCCCC [PtdIns(3,4)P2]
GST-DAPP1
  phosphoinositide binding: binds
[1]
  effect of mutation on interaction: abolished the interaction
[2]
  effect of mutation on interaction: did not affect the interaction
[3]
  effect of mutation on interaction: abolished the interaction
[4]
  phosphoinositide binding: interacted specifically
[5]
  effect of mutation on interaction: abolished the interaction
[6]
  phosphoinositide binding: interacted specifically

— patent US20040106148A1, “Polypeptides” (priority 2000, published 2004)
